Test results from article PMC4104973 (IUCrJ, 2013).

Legend:
WcbI [1] = target: T1, WcbI (Burkholderia pseudomallei, UniProt Q63R74); details: absolute Tm at 1 mM ligand (no ligand 37.4 ± 0.4 °C); 10 mM HEPES pH 7.0, 150 mM NaCl
WcbI [2] = target: T1, WcbI; experiment: biochemical
WcbI [3] = target: T1, WcbI; details: covalent (disulfide to Cys14); co-crystallized with 200 µM acetyl-CoA; native structure 4BQO (1.56 Å) holds non-covalent CoA carried from E. coli

T1 sequence (Q63R74 1-312 limits assumed): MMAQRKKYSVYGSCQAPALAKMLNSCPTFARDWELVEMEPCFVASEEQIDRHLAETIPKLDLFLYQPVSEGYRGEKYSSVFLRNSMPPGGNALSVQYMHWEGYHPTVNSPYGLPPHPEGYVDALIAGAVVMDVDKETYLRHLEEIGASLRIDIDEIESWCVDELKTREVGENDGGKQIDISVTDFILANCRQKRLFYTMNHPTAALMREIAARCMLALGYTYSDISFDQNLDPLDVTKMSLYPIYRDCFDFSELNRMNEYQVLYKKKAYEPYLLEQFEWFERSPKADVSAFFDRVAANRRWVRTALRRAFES

Row | SMILES | T m ± SD ^† (°C) (WcbI [1]) | Kd (WcbI [2]) [µM] | X-ray crystal structure, 1.38 Å (WcbI [3])
1 | CC(=O)SCCNC(=O)CCNC(=O)[C@H](O)C(C)(C)COP(=O)(O)OP(=O)(O)OC[C@H]1O[C@@H](n2cnc3c(N)ncnc32)[C@H](O)[C@@H]1OP(=O)(O)O [acetyl-CoA] | 45.6 ± 0.5 |  | 
2 | CC(C)(COP(=O)(O)OP(=O)(O)OC[C@H]1O[C@@H](n2cnc3c(N)ncnc32)[C@H](O)[C@@H]1OP(=O)(O)O)[C@@H](O)C(=O)NCCC(=O)NCCS [coenzyme A] | 46.2 ± 0.2 | 58 ± 2 | 4bqn for WcbI covalently bound to coenzyme A and 4bqo for the native structure
